Experimental data as given in patent US9447044B2, “Thioaryl derivatives as GPR120 agonists” (LG LIFE SCIENCES LTD., priority 2012, dated 2016).

Target: T1, hGPR120 (Homo sapiens, UniProt Q5NUL3)
T1 construct: expressed in transfected cells; host or cells: CHO-K1
T1 sequence (Q5NUL3 1-361): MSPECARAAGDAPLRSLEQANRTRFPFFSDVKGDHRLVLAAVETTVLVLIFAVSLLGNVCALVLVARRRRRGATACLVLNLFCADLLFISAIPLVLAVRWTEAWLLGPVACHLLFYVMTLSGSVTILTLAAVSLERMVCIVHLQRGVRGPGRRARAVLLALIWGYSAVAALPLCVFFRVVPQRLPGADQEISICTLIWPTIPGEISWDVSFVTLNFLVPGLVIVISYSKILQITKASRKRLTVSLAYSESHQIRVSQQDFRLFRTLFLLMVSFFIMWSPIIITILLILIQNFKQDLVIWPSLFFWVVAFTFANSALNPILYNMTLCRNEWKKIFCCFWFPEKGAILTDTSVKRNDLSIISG
Test: Measurement of activity of GPR120 agonist (cell-based assay), calcium fluorescence
Conditions: CHO-K1 cells expressing Ga16 and hGPR120, Calcium 5 dye fluorescence
In short: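 CHO-K1 cells co-expressing Gα16 and hGPR120, loaded with Calcium 5 dye for 1 h at 37° C, received serially diluted agonists (final 0.5% DMSO). Fluorescence (Ex 485/Em 525 nm) was expressed as relative percent over 0.1% DMSO-only wells; activity binned as A >20 μM, B 20–2 μM, C 2–0.2 μM, D <0.2 μM.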

SMILES	EC50 (activity class) [nM]	EC50 (numeric value) [nM]
CC(Cc1ccc(OCc2cccnc2SC2CCC2)c(F)c1)C(=O)O (centres unmarked) [Example 37, 3-[4-(2-cyclobutylsulfanyl-pyridin-3-ylmethoxy)-3-fluoro-phenyl]-2-methyl-propionic acid]	< 200	
Cc1ccc(COc2c(F)cc(CCC(=O)O)cc2F)c(SC2CCCC2)n1 [Example 45, 3-[4-(2-cyclopentylsulfanyl-6-methyl-pyridin-3-ylmethoxy)-3,5-difluoro-phenyl]-propionic acid]	< 200	
CCCCSc1ncccc1COc1c(F)cc(CCC(=O)O)cc1F [Example 26, 3-[4-(2-butylsulfanyl-pyridin-3-ylmethoxy)-3,5-difluoro-phenyl]-propionic acid]	< 200	
O=C(O)C1CC1c1cc(F)c(OCc2cccc(SC3CCCC3)n2)c(F)c1 (centres unmarked) [Example 35, 2-[4-(6-cyclopentylsulfanyl-pyridin-2-ylmethoxy)-3,5-difluoro-phenyl]-cyclopropane carboxylic acid]	< 200	
O=C(O)C1CC1c1cc(F)c(OCc2cccnc2SCC2CC2)c(F)c1 (centres unmarked) [Example 63, 2-[4-(2-cyclopropylmethylsulfanyl-pyridin-3-ylmethoxy)-3,5-difluoro-phenyl]-cyclopropane carboxylic acid]	< 200	
Cc1ccc(COc2c(F)cc(CCC(=O)O)cc2F)c(SC(C)C)n1 [Example 9, 3-[3,5-difluoro-4-(2-isopropylsulfanyl-6-methyl-pyridin-3-ylmethoxy)-phenyl]-propionic acid]	< 200	
CC(Cc1ccc(OCc2cccc(SC3CCC3)n2)c(F)c1)C(=O)O (centres unmarked) [Example 55, 3-[4-(6-cyclobutylsulfanyl-pyridin-2-ylmethoxy)-3-fluoro-phenyl]-2-methyl-propionic acid]	< 200	
CCCSc1ncccc1COc1c(F)cc(CC(C)C(=O)O)cc1F (centres unmarked) [Example 51, 3-[3,5-difluoro-4-(2-propylsulfanyl-pyridin-3-ylmethoxy)-phenyl]-2-methyl-propionic acid]	< 200	
O=C(O)C[C@@H]1COc2cc(OCc3cccnc3SC3CCCC3)ccc21 [Example 81, [(S)-6-(2-cyclopentylsulfanyl-pyridin-3-ylmethoxy)-2,3-dihydro-benzofuran-3-yl]-acetic acid]	< 200	
COc1cc(CCC(=O)O)ccc1OCc1cccc(SC(C)C)n1 [Example 72, 3-[4-(6-isopropylsulfanyl-pyridin-2-ylmethoxy)-3-methoxy-phenyl]-propionic acid]	< 200	
CCSc1ncccc1COc1c(F)cc(CCC(=O)O)cc1F [Example 10, 3-[4-(2-ethylsulfanyl-pyridin-3-ylmethoxy)-3,5-difluoro-phenyl]-propionic acid]	< 200	
O=C(O)C1CC1c1cc(F)c(OCc2cccnc2SC2CCCC2)c(F)c1 (centres unmarked) [Example 62, 2-[4-(2-cyclopentylsulfanyl-pyridin-3-ylmethoxy)-3,5-difluoro-phenyl]-cyclopropane carboxylic acid]	< 200	
O=C(O)CCc1ccc(OCc2cccnc2SC2CCCC2)c(Cl)c1 [Example 78, 3-[3-chloro-4-(2-cyclopentylsulfanyl-pyridin-3-ylmethoxy)-phenyl]-propionic acid]	< 200	
O=C(O)CCc1cc(F)c(OCc2cccnc2SCC2CC2)c(F)c1 [Example 17, 3-[4-(2-cyclopropylmethylsulfanyl-pyridin-3-ylmethoxy)-3,5-difluoro-phenyl]-propionic acid]	< 200	
O=C(O)C1CC1c1ccc(OCc2cccc(SC3CCCC3)n2)c(F)c1 (centres unmarked) [Example 85, 2-[4-(6-cyclopentylsulfanyl-pyridin-2-ylmethoxy)-3-fluoro-phenyl]-cyclopropane carboxylic acid]	< 200	
CCC(C)Sc1ncccc1COc1c(F)cc(CC(C)C(=O)O)cc1F (centres unmarked) [Example 42, 3-[4-(2-sec-butylsulfanyl-pyridin-3-ylmethoxy)-3,5-difluoro-phenyl]-2-methyl-propionic acid]	200 to 2000	
Cc1cnc(SC(C)C)c(COc2ccc(CCC(=O)O)cc2)c1 [Example 5, 3-[4-(2-isopropylsulfanyl-5-methyl-pyridin-3-ylmethoxy)-phenyl]-propionic acid]	< 200	
O=C(O)C1CC1c1ccc(OCc2cccc(SC3CCC3)n2)c(F)c1 (centres unmarked) [Example 86, 2-[4-(6-cyclobutylsulfanyl-pyridin-2-ylmethoxy)-3-fluoro-phenyl]-cyclopropane carboxylic acid]	< 200	
COc1ccc(COc2c(F)cc(CCC(=O)O)cc2F)c(SC(C)C)n1 [Example 43, 3-[3,5-difluoro-4-(2-isopropylsulfanyl-6-methoxy-pyridin-3-ylmethoxy)-phenyl]-propionic acid]	< 200	
CC(C)Sc1cccc(COc2ccc(CC(C)C(=O)O)cc2Cl)n1 (centres unmarked) [Example 93, 3-[3-chloro-4-(6-isopropylsulfanyl-pyridin-2-ylmethoxy)-phenyl]-2-methyl-propionic acid]	< 200	
CC(C)Sc1ncccc1COc1ccc(CC(C)(C)C(=O)O)cc1 [Example 69, 3-[4-(2-isopropylsulfanyl-pyridin-3-ylmethoxy)-phenyl]-2,2-dimethyl-propionic acid]	200 to 2000	
CCC(C)Sc1ncccc1COc1c(F)cc(CCC(=O)O)cc1F (centres unmarked) [Example 19, 3-[4-(2-sec-butylsulfanyl-pyridin-3-ylmethoxy)-3,5-difluoro-phenyl]-propionic acid]	< 200	
O=C(O)CCc1cc(F)c(OCc2cccnc2SCCC(F)(F)F)c(F)c1 [Example 27, 3-{3,5-difluoro-4-[2-(3,3,3-trifluoro-propylsulfanyl)-pyridin-3-ylmethoxy]-phenyl}-propionic acid]	200 to 2000	

The remaining lines, values ahead:

EC50 (activity class) [nM]	EC50 (numeric value) [nM]	SMILES
< 200		O=C(O)CCc1ccc(OCc2cccnc2SC2CCC2)c(F)c1 [Example 145, 3-[4-(2-cyclobutylsulfanyl-pyridin-3-ylmethoxy)-3-fluoro-phenyl]-propionic acid]
200 to 2000		O=C(O)C1CC1c1ccc(OCc2cccnc2SC2CCC2)c(Cl)c1 (single isomer, unassigned) [Example 124, 2-[3-chloro-4-(2-cyclobutylsulfanyl-pyridin-3-ylmethoxy)-phenyl]-cyclopropane carboxylic acid]
< 200		O=C(O)CCc1ccc(OCc2cccc(SC3CCCC3)n2)c(F)c1 [Example 150, 3-[4-(6-cyclopentylsulfanyl-pyridin-2-ylmethoxy)-3-fluoro-phenyl]-propionic acid]
	91	CC(C)Sc1ncccc1COc1ccc(C2CC2C(=O)O)cc1Cl (centres unmarked) [Example 126, 2-[3-chloro-4-(2-isopropylsulfanyl-pyridin-3-ylmethoxy)-phenyl]-cyclopropane carboxylic acid]
< 200		CCCSc1ncccc1COc1ccc(C2CC2C(=O)O)cc1Cl (centres unmarked) [Example 108, 2-[3-chloro-4-(2-propylsulfanyl-pyridin-3-ylmethoxy)-phenyl]-cyclopropane carboxylic acid]
< 200		CC(C)Sc1ncccc1COc1ccc(C2CC2C(=O)O)cc1Cl (centres unmarked) [Example 97, 2-[3-chloro-4-(2-isopropylsulfanyl-pyridin-3-ylmethoxy)-phenyl]-cyclopropane carboxylic acid]
	135	Cc1c(OCc2cccnc2SC2CCCC2)ccc2c(CC(=O)O)coc12 [Example 118, [6-(2-cyclopentylsulfanyl-pyridin-3-ylmethoxy)-7-methyl-benzofuran-3-yl]-acetic acid]
< 200		CC(C)Sc1cccc(COc2ccc(C3CC3C(=O)O)cc2Cl)n1 (centres unmarked) [Example 99, 2-[3-chloro-4-(6-isopropylsulfanyl-pyridin-2-ylmethoxy)-phenyl]-cyclopropane carboxylic acid]
200 to 2000		O=C(O)C1CC1c1ccc(OCc2cccnc2SCC2CC2)c(F)c1 (single isomer, unassigned) [Example 129, 2-[4-(2-cyclopropylmethylsulfanyl-pyridin-3-ylmethoxy)-3-fluoro-phenyl]-cyclopropane carboxylic acid]
200 to 2000		Cc1ccc(COc2ccc(CCC(=O)O)cc2Cl)c(SC2CCCC2)n1 [Example 161, 3-[3-chloro-4-(2-cyclopentylsulfanyl-6-methyl-pyridin-3-ylmethoxy)-phenyl]-propionic acid]
200 to 2000		O=C(O)C1CC1c1ccc(OCc2cccnc2SC2CCC2)c(F)c1 (single isomer, unassigned) [Example 133, 2-[4-(2-cyclobutylsulfanyl-pyridin-3-ylmethoxy)-3-fluoro-phenyl]-cyclopropane carboxylic acid]
200 to 2000		Cc1ccc(COc2ccc(CCC(=O)O)cc2)c(SC2CCCC2)n1 [Example 184]
200 to 2000		O=C(O)C1CC1c1ccc(OCc2cccc(SC3CCCC3)n2)cc1Cl (centres unmarked) [Example 104]
< 200		CC(C)Sc1cccc(COc2ccc(CCC(=O)O)cc2Cl)n1 [Example 141, 3-[3-chloro-4-(6-isopropylsulfanyl-pyridin-2-ylmethoxy)-phenyl]-propionic acid]
< 200		O=C(O)C1CC1c1cc(F)c(OCc2cccc(SC3CCC3)n2)c(F)c1 (centres unmarked) [Example 155, 2-[4-(6-cyclobutylsulfanyl-pyridin-2-ylmethoxy)-3,5-difluoro-phenyl]-cyclopropane carboxylic acid]
